Experimental data published in publication PMC9714824, “Hexapeptides from mammalian inhibitory hormone hunt activate and inactivate nematode reproduction” (PLOS ONE, 2022).

Assays:
[1] = system: human prostate cancer cell lines (LNCaP, PC3 and DU145); experiment: 3H-thymidine incorporation, prostate cancer cells; assay type: cell-based; conditions: 0.06 or 6 μM, 24h then 48h pulse; in words (Fig 4)
Protocol: For assays involving 14mer peptides only human prostate cancer cell lines (LNCaP, PC3 and DU145) were obtained from ATCC (American Tissue Type Culture Collection, Rockville, MD, USA). Cells were cultured in DMEM (Dulbecco’s […], Life Technologies, Grand Island, NY, USA) supplemented with 10% fetal calf serum (FCS, heat-inactivated), 100 IU/ml penicillin and 10 μg/ml streptomycin (all CSL, Parkville, Victoria, Australia) in 75 cm^2 culture flasks (Becton Dickinson, Franklin Lakes, NJ, USA) and were maintained at 37°C in a humidified incubator with […]. Incorporation of ^3H-thymidine was used to assess DNA synthesis. Cells were seeded overnight at 0.5 x 10^5 cells per well in 24-well tissue culture plates in DMEM culture medium (supplemented as above with 10% FCS, penicillin and streptomycin). Cell growth was synchronised by culturing cells in DMEM containing 0.1% bovine serum albumin (supplemented with penicillin and streptomycin, but without FCS) for 24h. […]
Fig 4 EPL001 and EPL030 effects on human prostate cancer cell growth in vitro. Cell proliferation was determined by ^3H-thymidine incorporation. […]

[2] = system: circulating levels of the anterior pituitary hormones LH, GH and PRL; experiment: Intracerebroventricular infusion in sheep, RIA of circulating pituitary hormones; assay type: in vivo, Ovis aries; conditions: for GH, percentage difference between After and Before / LH, percentage difference between After and Before / PRL, percentage difference between After and Before: ICV 100 μg/h for 24h; for GH, After / LH, After / PRL, After: last 6h of ICV infusion, 100 μg/h for 24h, one sheep, RIA, mean +/− SEM
Protocol: A sheep study involved randomly selected Corriedale ewes (Ovis aries) of typically 5–6 years of age maintained under natural conditions at the Monash University Sheep Facility, Werribee, Victoria, Australia. EPL001 and EPL030 were subject to intracerebroventricular (ICV) infusion separately in vivo via a permanent cannula into the third ventricle of the brains of one sheep each at 100 μg/h for 24h. The zone that forms the floor of the third ventricle is that part of the hypothalamus called the median eminence. This is the anatomical interface between the brain and the anterior pituitary. Immunostaining in the ovine median eminence, in the form of axonal beading, has been reported with an anti-EPL001 antibody. The aim here was to evaluate the impact on the ovine hypothalamic-pituitary axis of infusion from above the hypothalamus. Circulating levels of the anterior pituitary hormones LH (luteinising hormone), GH (growth hormone) and PRL (prolactin) were measured by radioimmunoassay (RIA) prior to and in the closing stages of infusion. Systemic blood samples from an indwelling jugular venous cannula were taken at 10 min intervals for 6h prior to infusion (‘Before’) and over the last 6h of infusion (‘After’).

[3] = system: MCF-7 human breast adenocarcinoma xenografts; experiment: MCF-7 xenograft precursor study (first study); assay type: in vivo, nude mice; conditions: for Max % weight loss: 100mg/kg/day i.p.; for Median RTV2: 100mg/kg/day i.p. on 15 days between days 0 and 20, n=8
Protocol: (§1) The MCF-7 human breast adenocarcinoma model was selected for two xenograft studies. An oestrogen pellet was implanted subcutaneously in the dorsal area 24 hours prior to 2-3mm^3 fragments of MCF-7 tumour taken from donor tumours transplanted subcutaneously in the abdominal flanks of the efficacy study mice. Once tumour volumes reached approximately 32 mm^3 (as measured by calipers, designated treatment day 0) mice were randomised into treatment groups (n=8).
In the first study four groups were used as follows: EPL001 or EPL030 at 100mg/kg/day administered i.p. on days 0, 1, 4, 5, 6, 7, 8, 11, 12, 13, 14, 15, 18, 19 and 20, plus a mouse anti-EPL001 monoclonal antibody or a control antibody directed at mouse haemocytes at 4mg/kg/day administered i.p. on days 0, 1, 2, 3, 4, 7, 8, 9, 10, 11, 14, 15, 16, 17 and 18 .
(§2) Tumour volume, using calipers, and animal body weight were recorded throughout the experiment and normalised to the respective volume on the initial day of treatment (day 0). Mann-Whitney U tests were conducted to determine the statistical significance of any differences in growth rate (based on tumour volume doubling time) between control and treated groups.

[4] = system: MCF-7 human breast adenocarcinoma xenografts; experiment: MCF-7 xenograft study with untreated control (second study); assay type: in vivo, nude mice; conditions: for Tumour growth delay compared to controls: in words; for Max % weight loss / Median RTV2 / Growth delay: second study; for Max % weight loss: 100mg/kg/day i.p.; for Median RTV2: 100mg/kg/day i.p. days 0-17, n=8; for Growth delay: vs untreated control
Protocol: The MCF-7 human breast adenocarcinoma model was selected for xenograft studies. […] An oestrogen pellet was implanted subcutaneously in the dorsal area 24 hours prior to 2-3mm^3 fragments of MCF-7 tumour taken from donor tumours transplanted subcutaneously in the abdominal flanks of the efficacy study mice. Once tumour volumes reached approximately 32 mm^3 (as measured by calipers, designated treatment Day 0) mice were randomised into one of three groups (n = 8) as follows: EPL001 or EPL030 at 100 mg/kg/day administered i.p. on […], plus a peptide-untreated (PBS only) control group. Tumour volume, using calipers, and animal body weight were recorded throughout the experiment and normalised to the respective tumour volume on the initial day of treatment (Day 0). Mann-Whitney U tests were conducted to determine the statistical significance of any differences in growth rate (based on tumour volume doubling time) between control and treated groups.
as §1
In the second study three groups were used as follows: EPL001 or EPL030 at 100mg/kg/day administered i.p. on days 0-17, plus an untreated control group.
as §2

| Sequence | Cell proliferation by 3H-thymidine incorporation [1] | GH, percentage difference between After and Before [2] | LH, percentage difference between After and Before [2] | PRL, percentage difference between After and Before [2] [%] | GH, After [2] [ng/mL] | LH, After [2] [ng/mL] | PRL, After [2] [ng/mL] | Max % weight loss [3] [%] | Median RTV2 [3] [days] | Tumour growth delay compared to controls ([4]; 100 mg/kg/day i.p., n = 8) | Tumour growth at termination compared with PBS-only controls ([4]; 100 mg/kg/day i.p., n = 8, ns) [%] | Max % weight loss [4] [%] | Median RTV2 [4] [days] | Growth delay [4] [days] | Growth delay ([3]; EPL001 versus EPL030) [days] |
| --- | --- | --- | --- | --- | --- | --- | --- | --- | --- | --- | --- | --- | --- | --- | --- |
| KLKMNGKNIEPVFT [EPL030, …, scrambled EPL001 control] | antiproliferative | +43.8% | +7.4% | −23.8 | 7.82 ± 0.80 | 12.89 ± 3.78 | 107.03 ± 18.92 | 1.2 | 7.3 | no statistically significant tumour growth delay | −20.2 | 2.4 | 3.6 | 0.1 | – |
| MKPLTGKVKEFNNI [EPL001, 14mer master test peptide …; ovine provenance] | antiproliferative | +25.4% | +13.4% | −28.5 | 3.41 ± 0.63 | 6.48 ± 0.90 | 95.14 ± 21.62 | 3.6 | 7.7 | no statistically significant tumour growth delay | – | 0 | 4.6 | 1.1 | 0.4 |
